According to US12083084B2, “Method for enhancing energy production and metabolism in cells” (REPLICON HEALTH OY, priority 2013, dated 2024):

Tests used:
[1] = Blood pressure (hypertension) in study subjects; format: in vivo, human
Protocol: FIG. 12 depicts that hypertension was measured in two study subjects out of eight (subject 4 and 5). Subject 5 was the only person with clearly elevated blood pressure. (For other study subjects 1-3 and 6-8 blood pressures were at normal level.) Subject 5 blood pressure was first observed without any treatment for 6 days (from 20 of Jan. to 26 of Jan. 2013). After that subject 5 received twice a day 4 mg/kg of DGA mixed to water for 10 days. […] Subject 4 received 1×4 mg/k/day of DGA for 3 weeks.
FIG. 12a: Hypertension, subject 5 (averages of three measurements. DGA dosing started on 26th of January and ended on 3rd of February. Dose 2×4 mg/kg/day).
FIG. 12b: Hypertension, subject 4 (averages of three measurements. Subject 4 received 1×4 mg/kg/day of DGA for 3 weeks).

[2] = system: Mitochondria of Primary Rat Cortical Neurons; experiment: Mitochondrial Ca2+-uptake in rat cortical neurons (fluorescent imaging); format: cell-based; settings: 50 ug/ml for 24 h, N = 3
Protocol: Fluorescent imaging. Imaging experiments were performed at 7 DIV. The cells were loaded with fluorescent dyes (fura4F, fura-ff and rhodamine 123) in cell culture medium at 37° C. 1 h, 5 μM for each dye. Then cells were washed with Mg^2+-free Locke's buffer containing 1.3 mM Ca^2+, moved to the microscope stage, and imaging was performed at room temperature. […] For delayed calcium deregulation experiments a lower affinity Ca^2+-indicator FuraFF (Kd 5.5 μM) was used to avoid a saturation of the signal.
In this study a zero control and one DGAcs group of primary rat cortical neurons was cultivated normally without DGAcs until 6 DIV, and then the DGAcs group was treated with 50 μg/ml DGAcs for 24 hours. After that culture medium was replaced by Mg^2+-free Locke's buffer containing 50 μg/ml DGAcs and imaging experiments were performed at room temperature at 7 DIV.
50 μM NMDA in the presence of 10 μM glycin in Mg^2+-free buffer was used to stimulate the cells.
For complete mitochondrial depolarization and release of Ca^2+ accumulated in mitochondria 2 μM protonophore FCCP was used in the presence of NMDA-receptors inhibitor MK801 (2 μM).

[3] = rats, given with ethanol; cited from earlier work

Row | Structure (SMILES) | blood pressure ([1]; subject 4, 1×4 mg/kg/day for 3 weeks) | diastolic blood pressure after treatment ([1]; subject 5, clearly elevated blood pressure (102 or 104 before), twice a day for 10 days) | systolic blood pressure after treatment ([1]; subject 5, clearly elevated blood pressure (roughly 180 before), twice a day for 10 days) | Average Ca release, FCCP ([2]; 2 μM FCCP + MK801 (complete mitochondrial depolarization)) | Average Ca release, peak NMDA ([2]; 50 μM NMDA) | Average Ca release, baseline Ca [2] | metabolism of alcohol [3]
1 | O=C(O)[C@H](O)CO [DGA, D-glyceric acid] | declined also somewhat | ~90 | ~160 | – | – | – | –
2 | O.O.O=C([O-])[C@H](O)CO.O=C([O-])[C@H](O)CO.[Ca+2] [DGAcs, D-glyceric acid, calcium salt dehydrate] | – | – | – | 0.475 *) | 0.219 | 0.070 | expedited the metabolism of alcohol
